Measured values reported in paper PMC11188740, “A small molecule that inhibits the evolution of antibiotic resistance” (NAR Molecular Medicine, 2024).

Assays:
[1] = target: T1, Mfd (Escherichia coli, UniProt P30958); experiment: microscale thermophoresis (His-tag labeled Mfd); also RNAP displacement assay with purified Mfd; assay type: binding
T1 construct: purified His-tagged E. coli Mfd (expressed from pCA24N-Mfd)

[2] = target: T1, Mfd; experiment: NADH-coupled ATPase assay, Michaelis–Menten Km without ARM-1; assay type: biochemical
From the text: NADH-coupled ATPase assay, Michaelis–Menten Km without ARM-1 on Mfd | Kinetic constants of Mfd ATPase activity determined using Michaelis–Menten modeling

T1 sequence (P30958 whole entry): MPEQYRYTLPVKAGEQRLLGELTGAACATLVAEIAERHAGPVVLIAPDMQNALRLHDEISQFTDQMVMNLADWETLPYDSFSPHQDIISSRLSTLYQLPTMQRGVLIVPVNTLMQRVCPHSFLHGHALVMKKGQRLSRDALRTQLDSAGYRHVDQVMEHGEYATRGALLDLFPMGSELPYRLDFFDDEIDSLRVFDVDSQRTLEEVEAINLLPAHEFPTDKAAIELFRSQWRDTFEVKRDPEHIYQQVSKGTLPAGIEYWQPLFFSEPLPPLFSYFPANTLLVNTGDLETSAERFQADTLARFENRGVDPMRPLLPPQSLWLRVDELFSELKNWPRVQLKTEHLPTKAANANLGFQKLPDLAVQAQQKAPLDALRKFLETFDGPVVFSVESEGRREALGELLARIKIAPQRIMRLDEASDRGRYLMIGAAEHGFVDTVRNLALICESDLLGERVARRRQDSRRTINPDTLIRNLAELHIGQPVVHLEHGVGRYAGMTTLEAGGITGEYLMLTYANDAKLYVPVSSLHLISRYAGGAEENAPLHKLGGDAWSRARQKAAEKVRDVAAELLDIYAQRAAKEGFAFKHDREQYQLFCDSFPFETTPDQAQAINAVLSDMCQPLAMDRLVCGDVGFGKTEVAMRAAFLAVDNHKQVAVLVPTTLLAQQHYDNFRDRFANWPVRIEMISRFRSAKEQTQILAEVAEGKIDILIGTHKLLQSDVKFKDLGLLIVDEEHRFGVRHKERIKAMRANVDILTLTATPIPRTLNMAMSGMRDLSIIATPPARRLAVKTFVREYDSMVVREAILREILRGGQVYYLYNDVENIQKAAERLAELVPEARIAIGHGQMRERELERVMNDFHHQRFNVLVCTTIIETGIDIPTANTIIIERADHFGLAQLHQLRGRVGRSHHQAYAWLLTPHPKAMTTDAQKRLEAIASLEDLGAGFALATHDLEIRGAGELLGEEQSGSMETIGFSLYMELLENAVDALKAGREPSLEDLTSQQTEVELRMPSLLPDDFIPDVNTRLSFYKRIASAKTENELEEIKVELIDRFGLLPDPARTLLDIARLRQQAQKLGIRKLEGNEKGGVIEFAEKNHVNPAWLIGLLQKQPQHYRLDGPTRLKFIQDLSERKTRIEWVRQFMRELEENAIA

Work on Cc1cc(Br)ccc1-c1ccc(CNCCCN(C)C)o1 [ARM-1] yielded a Kd [1] of 4.25 µM.

With Nc1ncnc2c1ncn2[C@@H]1O[C@H](COP(=O)(O)OP(=O)(O)OP(=O)(O)O)[C@@H](O)[C@H]1O [ATP] the “K m / Mean” value [2] was 0.954.
